Assay [1] deals with NMDA. The experiment in a line: PDSP primary binding NMDA. The settings on record: primary binding, 10,000 nM; last figure of the line = mean of the 4 before it. As for the experimental part:
(§1) To determine if any off-target receptor-binding effects are present, all the novel ligands were sent to the National Institute of Mental Health (NIMH), Psychoactive Drug Screening Program (PDSP). The ligands were screened over a panel of 47 receptors, ion channels, and transporters to determine any other possible interactions with […]. The hERG-binding was also determined. […] No binding of the test compounds to calcium channels was observed. […] It is necessary to screen the compounds for hERG-binding during the early process of drug discovery. The unintentional binding of many drugs to hERG can cause blockade of hERG K+ channels in the heart, which can cause many side effects including cardiac arrhythmias and sudden death. […] All of the α5 imidazodiazepines were tested for hERG-binding.
(§2) The NIMH PDSP assay protocol book [https://kidbdev.med.unc.edu/databases/PDSP%20Protocols%20II%202013-03-28.pdf accessed on 23 April 2023]. describes the protocols for primary and secondary radio-ligand binding assays. These assays were carried out in a final volume of 125 µL per well in the appropriate binding buffer.
(§3) The binding of a ligand to a receptor, ion channel, or transporter was determined in the […] of 10 µM of the appropriate reference compound. […] Plates were incubated in the dark for 90 min at rt, and the reactions were stopped by vacuum filtration onto 0.3% polyethyleneimine (PEI) soaked 96-well filter mats using a 96-well Filtermateharvester. This was followed by three washes with cold PBS buffer. Radioactivity was then counted on a Microbeta counter. Nonlinear regression was used to analyze the data with N = 6 replicates.

Assay [2] addresses T1, Alpha4Beta2 (Rattus norvegicus, UniProt P09483+P12390).
T1 construct: purchased NIMH Psychoactive Drug Screening Program (PDSP)
The experiment in a line: PDSP primary binding Alpha4Beta2. The settings on record: primary binding, 10,000 nM; last figure of the line = mean of the 4 before it; read-out: Alpha4Beta2, PDSP raw data, mean. The protocol: as §1, §2, §3

Assay [3] deals with T2, Alpha2C (Homo sapiens, UniProt P18825).
T2 construct: purchased NIMH Psychoactive Drug Screening Program (PDSP)
T2 sequence (P18825 1-462): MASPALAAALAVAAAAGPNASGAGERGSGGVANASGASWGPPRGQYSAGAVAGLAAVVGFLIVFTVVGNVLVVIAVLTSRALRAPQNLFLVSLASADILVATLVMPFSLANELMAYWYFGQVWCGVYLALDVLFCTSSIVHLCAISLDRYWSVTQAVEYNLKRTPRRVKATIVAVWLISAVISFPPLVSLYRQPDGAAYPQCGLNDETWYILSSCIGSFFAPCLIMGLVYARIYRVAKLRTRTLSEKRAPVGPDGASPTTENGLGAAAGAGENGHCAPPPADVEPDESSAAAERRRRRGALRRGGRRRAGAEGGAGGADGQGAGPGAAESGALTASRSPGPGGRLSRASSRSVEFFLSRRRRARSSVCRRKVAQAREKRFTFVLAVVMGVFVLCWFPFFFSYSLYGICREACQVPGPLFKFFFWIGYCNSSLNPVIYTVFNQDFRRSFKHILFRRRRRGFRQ
In words: PDSP primary binding Alpha2C. To be noted: 1.5 h; primary binding, 10,000 nM; last figure of the line = mean of the 4 before it; read-out: Alpha2C, PDSP raw data, mean. As for the experimental part:
as §1, §2, §3

The target of assay [4] is T3, 5-HT2A (Homo sapiens, UniProt P28223).
T3 construct: purchased NIMH Psychoactive Drug Screening Program (PDSP)
T3 sequence (P28223 whole entry): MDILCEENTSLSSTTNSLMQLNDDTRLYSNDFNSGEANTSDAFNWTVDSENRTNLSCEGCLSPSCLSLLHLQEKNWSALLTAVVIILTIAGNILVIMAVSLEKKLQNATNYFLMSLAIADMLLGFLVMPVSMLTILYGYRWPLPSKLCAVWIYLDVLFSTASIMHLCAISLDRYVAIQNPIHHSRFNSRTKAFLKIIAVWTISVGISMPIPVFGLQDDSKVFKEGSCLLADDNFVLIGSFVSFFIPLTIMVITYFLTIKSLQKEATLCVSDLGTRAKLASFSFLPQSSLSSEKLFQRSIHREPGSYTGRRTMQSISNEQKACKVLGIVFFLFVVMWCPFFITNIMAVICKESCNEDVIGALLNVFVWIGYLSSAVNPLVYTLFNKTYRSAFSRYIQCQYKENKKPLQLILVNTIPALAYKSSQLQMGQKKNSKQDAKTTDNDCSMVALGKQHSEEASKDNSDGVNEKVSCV
The experiment in a line: PDSP primary binding 5-HT2A. The settings on record: 1.5 h; primary binding, 10,000 nM; last figure of the line = mean of the 4 before it; read-out: 5-HT2A, PDSP raw data, mean. As for the experimental part: as §1, §2, §3

The target of assay [5] is T4, DOR (Homo sapiens, UniProt P41143).
T4 construct: purchased NIMH Psychoactive Drug Screening Program (PDSP)
T4 sequence (P41143 whole entry): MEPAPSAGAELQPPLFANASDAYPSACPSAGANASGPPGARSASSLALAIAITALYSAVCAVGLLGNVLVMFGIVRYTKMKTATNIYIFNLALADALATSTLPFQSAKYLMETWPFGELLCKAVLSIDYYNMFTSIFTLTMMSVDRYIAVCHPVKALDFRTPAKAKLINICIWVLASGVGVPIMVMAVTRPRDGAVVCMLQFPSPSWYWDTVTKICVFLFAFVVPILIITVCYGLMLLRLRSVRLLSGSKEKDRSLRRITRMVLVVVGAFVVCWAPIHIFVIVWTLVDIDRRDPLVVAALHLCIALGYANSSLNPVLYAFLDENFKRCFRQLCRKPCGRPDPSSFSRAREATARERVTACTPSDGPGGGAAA
In words: PDSP radioligand binding at DOR.
Description: Opioid receptors are a family of inhibitory G-coupled protein receptors where opioids act as the ligand. The kappa opioid receptors (KOR), µ and δ opioid receptors (MOR and DOR), and nociception opioid receptor (NOP) fall under the family of opioids receptors. It has been reported that oxadiazole imidazodiazepines can mediate analgesic and anti-inflammatory properties mediated also by the κ opioid receptor (KOR). The binding at KOR is usually silent. The affinities of the test compounds for KOR, DOR, and MOR were determined using radioligand binding assays at a screening concentration of 10,000 nM in collaboration with the National Institute of Mental Health’s Psychoactive Drug Screening Program (PDSP), as mentioned before. Concentration-dependent experiments were conducted to determine Ki values for the compounds that exceeded more than 50% radioligand displacement in primary binding assays.
as §2, §3

Assay [6] has as its target T5, Alpha2Beta2 (Rattus norvegicus, UniProt P12389+P12390).
T5 construct: purchased NIMH Psychoactive Drug Screening Program (PDSP)
The experiment in a line: PDSP primary binding Alpha2Beta2. The settings on record: primary binding, 10,000 nM; last figure of the line = mean of the 4 before it; read-out: Alpha2Beta2, PDSP raw data, mean. The protocol: as §1, §2, §3

Assay [7] deals with BZP rat brain site. In words: PDSP binding at BZP rat brain site. To be noted: for Ki: N = 2, read-out: Binding Affinity BZR Secondary Screening Ki; for Ki / Binding Affinity BZR % Inhibition (Primary): rat brain; for BZP Rat Brain Site, PDSP raw data, mean: primary binding, 10,000 nM, last figure of the line = mean of the 4 before it; for Binding Affinity BZR % Inhibition (Primary): at 10,000 nM, N = 5. As for the experimental part: The BZR binding affinity of the test compounds was also measured using rat brain BzR. […] The efficacy of imidazodiazepines on the benzodiazepine receptor depends on various factors, including the specific subtype of the receptor they bind to, their chemical structure, and the dose.
as §2, §3

The target in assay [8] is T6, Alpha1D (Homo sapiens, UniProt P25100).
T6 construct: purchased NIMH Psychoactive Drug Screening Program (PDSP)
T6 sequence (P25100 1-572): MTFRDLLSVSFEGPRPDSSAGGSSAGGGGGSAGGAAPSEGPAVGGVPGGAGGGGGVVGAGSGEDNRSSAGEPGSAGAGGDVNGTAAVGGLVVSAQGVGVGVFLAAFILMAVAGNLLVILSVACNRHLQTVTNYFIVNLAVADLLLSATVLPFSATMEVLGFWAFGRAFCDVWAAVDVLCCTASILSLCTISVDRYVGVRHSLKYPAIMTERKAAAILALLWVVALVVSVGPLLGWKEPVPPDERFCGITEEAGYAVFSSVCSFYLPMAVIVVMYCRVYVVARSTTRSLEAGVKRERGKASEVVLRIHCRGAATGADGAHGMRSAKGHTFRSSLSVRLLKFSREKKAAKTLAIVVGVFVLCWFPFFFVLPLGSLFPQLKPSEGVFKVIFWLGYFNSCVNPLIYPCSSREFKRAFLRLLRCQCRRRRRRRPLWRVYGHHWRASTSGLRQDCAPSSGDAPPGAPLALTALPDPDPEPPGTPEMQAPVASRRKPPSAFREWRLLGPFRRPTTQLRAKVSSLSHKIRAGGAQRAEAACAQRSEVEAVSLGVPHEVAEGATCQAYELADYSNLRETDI
In words: PDSP primary binding Alpha1D. The settings on record: 1.5 h; primary binding, 10,000 nM; last figure of the line = mean of the 4 before it; read-out: Alpha1D, PDSP raw data, mean. As for the experimental part: as §1, §2, §3

[9] abbreviates: at 10,000 nM, N = 5, [3H]-DADLE 2.69 nM, read-out: Primary Binding %DOR.
Setting [10] is: primary binding, 10,000 nM, last figure of the line = mean of the 4 before it, read-out: DOR, PDSP raw data, mean.

The structures appear in SMILES notation. Like-named read-outs stand apart in the source and are kept apart here.

T1 sequence (P09483 31-630): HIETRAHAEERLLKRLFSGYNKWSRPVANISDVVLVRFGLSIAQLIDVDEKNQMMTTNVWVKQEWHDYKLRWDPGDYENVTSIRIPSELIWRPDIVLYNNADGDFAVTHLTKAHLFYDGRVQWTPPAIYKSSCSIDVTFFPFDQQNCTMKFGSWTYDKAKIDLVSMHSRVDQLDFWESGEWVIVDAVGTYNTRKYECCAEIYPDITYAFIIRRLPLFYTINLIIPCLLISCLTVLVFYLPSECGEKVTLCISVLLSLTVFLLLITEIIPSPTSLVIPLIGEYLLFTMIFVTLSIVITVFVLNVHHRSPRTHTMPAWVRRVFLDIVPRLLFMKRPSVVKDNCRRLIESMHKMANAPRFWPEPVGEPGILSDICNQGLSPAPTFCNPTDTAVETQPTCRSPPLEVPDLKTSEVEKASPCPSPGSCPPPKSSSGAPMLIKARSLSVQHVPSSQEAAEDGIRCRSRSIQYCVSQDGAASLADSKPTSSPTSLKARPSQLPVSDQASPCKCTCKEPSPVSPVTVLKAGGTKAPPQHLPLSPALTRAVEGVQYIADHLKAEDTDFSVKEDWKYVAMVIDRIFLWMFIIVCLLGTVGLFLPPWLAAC
T1 sequence (P12390 25-500): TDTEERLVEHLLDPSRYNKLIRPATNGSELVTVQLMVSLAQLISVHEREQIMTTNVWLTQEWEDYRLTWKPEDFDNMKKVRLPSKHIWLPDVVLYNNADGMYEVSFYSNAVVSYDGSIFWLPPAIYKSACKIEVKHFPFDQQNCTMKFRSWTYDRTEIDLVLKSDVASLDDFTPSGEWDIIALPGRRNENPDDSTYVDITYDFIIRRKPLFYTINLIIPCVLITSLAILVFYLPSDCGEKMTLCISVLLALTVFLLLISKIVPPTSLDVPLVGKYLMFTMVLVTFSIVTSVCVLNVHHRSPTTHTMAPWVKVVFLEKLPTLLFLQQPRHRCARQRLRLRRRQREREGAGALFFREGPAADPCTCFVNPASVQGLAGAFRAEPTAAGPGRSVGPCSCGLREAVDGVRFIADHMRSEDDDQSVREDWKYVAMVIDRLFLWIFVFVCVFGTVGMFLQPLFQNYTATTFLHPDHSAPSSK
T5 sequence (P12389 28-511): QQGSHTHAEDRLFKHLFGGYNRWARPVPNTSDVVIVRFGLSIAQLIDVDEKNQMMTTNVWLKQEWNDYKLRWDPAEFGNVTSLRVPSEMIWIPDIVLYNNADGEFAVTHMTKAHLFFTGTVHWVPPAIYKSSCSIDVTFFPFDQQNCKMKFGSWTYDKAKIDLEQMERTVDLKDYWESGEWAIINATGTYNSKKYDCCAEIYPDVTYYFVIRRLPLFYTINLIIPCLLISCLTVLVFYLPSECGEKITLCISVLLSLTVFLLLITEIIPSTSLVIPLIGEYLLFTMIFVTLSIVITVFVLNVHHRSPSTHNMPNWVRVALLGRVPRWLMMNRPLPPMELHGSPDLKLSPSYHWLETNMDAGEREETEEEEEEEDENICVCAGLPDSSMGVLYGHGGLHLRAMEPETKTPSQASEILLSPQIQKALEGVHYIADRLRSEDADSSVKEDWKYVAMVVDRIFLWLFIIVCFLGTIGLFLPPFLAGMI
T5 sequence (P12390 25-500): as the sequence (P12390 25-500) above

As for `CCc1noc(-c2ncn3c2[C@@H](C)N=C(c2ccccc2F)c2cc(Cl)ccc2-3)n1` [Compound 36, (R)-5-(8-Chloro-6-(2′-fluorophenyl)-4-methyl-4H-benzo[f]imidazo[1,5-a][1,4]diazepin-3-yl)-3-ethyl-1,2,4-oxadiazole], the “NMDA, PDSP raw data, mean” value in assay [1] was 55.6%. Besides, the inhibition at 10 µM in assay [2] was -1.38%; in assay [3] it was 1.43%; in assay [4], 11.1%; in assay [5] (setting [9]), 40.7 ± 10.2%; in assay [5] (setting [10]), 40.7%; in assay [6] it was -6.7%. Also, the inhibition at 10 µM in assay [8] was -14.3%. Also, in assay [7], the Ki is 590 ± 44.6 nM. Also, the “BZP Rat Brain Site, PDSP raw data, mean” value in assay [7] turned out to be 81.81%.
For the molecule `C[C@H]1N=C(c2ccccc2F)c2cc(-c3ccccc3)ccc2-n2cnc(C(=O)N(C)C)c21` [Compound 5, (R)-6-(2′-Fluorophenyl)-N,N,4-trimethyl-8-phenyl-4H-benzo[f]imidazo[1,5-a][1,4]diazepine-3-carboxamide], the “NMDA, PDSP raw data, mean” value in assay [1] is recorded as 43.17%. The inhibition at 10 µM in assay [2] was -1.65%; in assay [3], 12.9%; in assay [4], 10.7%; in assay [5] (setting [9]) it was 43 ± 7.83%; in assay [5] (setting [10]) it was 43%; in assay [6] it was -5.95%. The inhibition at 10 µM in assay [8] worked out at 3.57%. In assay [7], the inhibition constant (Ki) amounted to 123 ± 22.3 nM. Besides, in assay [7], the “Binding Affinity BZR % Inhibition (Primary)” value is recorded as 94.79 ± 1.08%.
Turning to `C[C@H]1N=C(c2ccccc2F)c2cc(Cl)ccc2-n2cnc(-c3nc(C4CC4)no3)c21` [Compound 38, (R)-5-(8-Chloro-6-(2′-fluorophenyl)-4-methyl-4H-benzo[f]imidazo[1,5-a][1,4]diazepin-3-yl)-3-cyclopropyl-1,2,4-oxadiazole], the “NMDA, PDSP raw data, mean” value in assay [1] is 65.22%. Moreover, the inhibition at 10 µM in assay [2] was 1.67%; in assay [3], 9.93%; in assay [4], 11.6%; in assay [5] (setting [9]), 42.8 ± 8.94%; in assay [5] (setting [10]), 42.7%; in assay [6], 1.44%. For the same molecule, the inhibition at 10 µM in assay [8] is -2.84%. Moreover, the “BZP Rat Brain Site, PDSP raw data, mean” value in assay [7] came out at 88.28%.
For the molecule `C#Cc1ccc2c(c1)C(c1ccccc1F)=N[C@H](C)c1c(C(=S)N(C)C)ncn1-2` [Compound 33, (R)-8-Ethynyl-6-(2′-fluorophenyl)-N,N,4-trimethyl-4H-benzo[f]imidazo[1,5-a][1,4]diazepine-3-carbothioamide], the “NMDA, PDSP raw data, mean” value in assay [1] came out at 43.17%. The inhibition at 10 µM is -1.65% in assay [2]; 12.9% in assay [3]; 10.7% in assay [4]; 13.2 ± 7.83% in assay [5] (setting [9]); 43% in assay [5] (setting [10]); -5.95% in assay [6]. In assay [8], the inhibition at 10 µM came out at 3.57%. In assay [7], the Ki is 871 ± 8.72 nM. The “BZP Rat Brain Site, PDSP raw data, mean” value in assay [7] is given as 94.79%.
On to `C#Cc1ccc2c(c1)C(c1ccccc1Cl)=N[C@H](C)c1c(C(=O)NC)ncn1-2` [Compound 21, (R)-6-(2′-Chlorophenyl)-8-ethynyl-N,4-dimethyl-4H-benzo[f]imidazo[1,5-a][1,4]diazepine-3-carboxamide], for which the “NMDA, PDSP raw data, mean” value in assay [1] is given as 77.15%. Further, the inhibition at 10 µM was 4.88% in assay [2]; -1.39% in assay [3]; -7.9% in assay [4]; 28.3 ± 4.67% in assay [5] (setting [9]); 28.3% in assay [5] (setting [10]); 3.88% in assay [6]. Moreover, in assay [8], the inhibition at 10 µM was -5.53%. In addition, the Ki in assay [7] amounted to 77.7 ± 2.93 nM. Also, in assay [7], the “Binding Affinity BZR % Inhibition (Primary)” value came out at 94.96 ± 2.06%.

(Values after publication PMC10303271, “Synthesis and Receptor Binding Studies of α5 GABAAR Selective Novel Imidazodiazepines Targeted for Psychiatric and Cognitive Disorders” (Molecules, 2023).)
